Reference: PMC12549564, “A thermo-sensitive peptide hydrogel loaded with paclitaxel and antimony nanosheets for synergistic photothermal-chemotherapeutic treatment of breast cancer” (Frontiers in Pharmacology, 2025)
Values belong to the compound of their own block, whether it stands above or below them.

Assays:
Type in all cases: physicochemical
[1] = PTX release from hydrogel in vitro; conditions: hydrogel 20 mg/mL TSP-5, 2 mg/mL PTX, 0.6 mg/mL AM, PBS pH 7.4, 37 °C, 120 rpm, 7 days, HPLC, n = 3
Experimental: Gel sample (100 μL; 20 mg/mL TSP-5, 2 mg/mL PTX, 0.6 mg/mL AM) was prepared at 37 °C in a 1.5 mL EP tube. PBS (pH 7.4) was used to carefully wash the surface of the sample, and the cleaning solution was collected. The content of PTX not encapsulated was then determined by HPLC, and the encapsulation rate was calculated according to the formula: Encapsulation rate (%) = (PTX total –PTX in cleaning solution )/PTX total × 100%.
1 mL PBS (pH 7.4) was added as release medium, and the EP tube was placed in a thermostatic oscillator (120 rpm, 37 °C). All the release solution were carefully collected at different time points (0.5, 2, 4, 8, 12, 24, 48, 72, 96, 120, 144 and168 h), and the same volume of fresh release media was added. For the laser group, samples were irradiated (808 nm, 1 W/cm^2, 5 min) before each sampling. PTX release was quantified by HPLC.

[2] = AM concentration study: gelation time of TSP-5 loaded with AM; conditions: TSP-5 20 mg/mL
Experimental: (§1) The gelation behavior of TSP-5 was evaluated at various concentrations, temperatures, and AM concentrations. Gel formation was assessed via vial inversion.
AM concentration study: Aqueous solutions of TSP-5 (20 mg/mL) was prepared at 25 °C and AM suspension of different concentrations (0.2, 0.4, 0.6, 0.8 and 1.0 mg/mL) was added. The sample was then placed in a water bath at 37 °C and 45 °C respectively to observe the gelatinization.

[3] = Temperature study: gelation of TSP-5, vial inversion; set-up: key: L: liquid; VL: viscous liquid; SG: stable gel; UG: unstable gel; conditions: TSP-5 20 mg/mL, water bath 40 °C
Experimental: as §1
(§2) Temperature study: Aqueous solutions of TSP-5 (20 mg/mL) were prepared and then placed in water bath at 30 °C, 37 °C, 40 °C, 45 °C, 50 °C and 55 °C respectively to observe the gelatinization.

[4] = DLS particle size of TSP-5 hydrogel at different temperatures
[5] = Temperature study: gelation of TSP-5, vial inversion; set-up: key: L: liquid; IS: insoluble; SS: slightly soluble; conditions: TSP-5 20 mg/mL, water bath 30 °C
Experimental: as §1, §2

[6] = as above; conditions: for Gelation state: TSP-5 aqueous solution 20 mg/mL
Experimental: as §1, §2

[7] = Concentration study: solubility of TSP-5 in water; conditions: for Solubility of TSP-5: aqueous solution, pH 7.4, 25 °C
Experimental: Concentration study: At room temperature (25 °C), aqueous solutions of TSP-5 was prepared at concentrations of 15 mg/mL, 20 mg/mL, 25 mg/mL and 30 mg/mL, respectively, and adjusted to pH 7.4 with NaOH (0.5 M) and HCl (0.1 M). Gel formation was assessed via vial inversion.

[8] = TSP-5 20 mg/mL, water bath 37 °C

Cumulative release of PTX from the hydrogel ([1]; with laser (808 nm, 1 W/cm^2, 5 min before each sampling)): 61.83%
Cumulative release of PTX from the hydrogel ([1]; without laser): 42.81%
Compound: CC(=O)O[C@H]1C(=O)[C@@]2(C)[C@H]([C@H](OC(=O)c3ccccc3)[C@]3(O)C[C@H](OC(=O)[C@H](O)[C@@H](NC(=O)c4ccccc4)c4ccccc4)C(C)=C1C3(C)C)[C@]1(OC(C)=O)CO[C@@H]1C[C@@H]2O [PTX, Paclitaxel]

Gelation time: SG (stable gel) ([2]; AM 0.2 mg/mL, 37 °C): 40 min
Gelation time: VL (viscous liquid) ([2]; AM 0.2 mg/mL, 37 °C): 15 min
Gelation time: UG (unstable gel) ([2]; AM 0.2 mg/mL, 45 °C): 39 min
Gelation time: VL (viscous liquid) ([2]; AM 0.2 mg/mL, 45 °C): 3 min
Gelation time: SG (stable gel) ([2]; AM 0.4 mg/mL, 37 °C): 33 min
Gelation time: VL (viscous liquid) ([2]; AM 0.4 mg/mL, 37 °C): 14 min
Gelation time: UG (unstable gel) ([2]; AM 0.4 mg/mL, 45 °C): 33 min
Gelation time: VL (viscous liquid) ([2]; AM 0.4 mg/mL, 45 °C): 4 min
Gelation time: SG (stable gel) ([2]; AM 0.6 mg/mL, 37 °C): 30 min
Gelation time: VL (viscous liquid) ([2]; AM 0.6 mg/mL, 37 °C): 10 min
Gelation time: UG (unstable gel) ([2]; AM 0.6 mg/mL, 45 °C): 30 min
Gelation time: VL (viscous liquid) ([2]; AM 0.6 mg/mL, 45 °C): 2 min
Gelation time: SG (stable gel) ([2]; AM 0.8 mg/mL, 37 °C): 30 min
Gelation time: VL (viscous liquid) ([2]; AM 0.8 mg/mL, 37 °C): 9 min
Gelation time: UG (unstable gel) ([2]; AM 0.8 mg/mL, 45 °C): 30 min
Gelation time: VL (viscous liquid) ([2]; AM 0.8 mg/mL, 45 °C): 2 min
Gelation state [3]: SG
Hydrodynamic size (DLS) ([4]; 37 °C): ~1,300 nm
Hydrodynamic size (DLS) ([4]; 45 °C): ~350 nm
Gelation state [5]: L
Gelation: time given for SG (stable gel) [6, 8]: 32 min
Gelation: time given for VL (viscous liquid) [6, 8]: 10 min
Gelation state ([6]; pH 7.4, 37 °C): stable hydrogel
Gelation state ([6]; pH 7.4, 45 °C): completely viscous liquid
Solubility of TSP-5 ([7]; peptide 15 mg/mL): L (liquid)
Solubility of TSP-5 ([7]; peptide 20 mg/mL): L (liquid)
Solubility of TSP-5 ([7]; peptide 25 mg/mL): SS (slightly soluble)
Solubility of TSP-5 ([7]; peptide 30 mg/mL): IS (insoluble)
Hydrogel formation ([7]; pH 7.4, 15–30 mg/mL, 25 °C, vial inversion): no hydrogel formation was observed
Compound: Ac-DDIIIVPGVGK-NH2 [TSP-5, Ac-DDIII-VPGVG-K-NH2]
